Results as given in paper PMC5218480 (PLoS ONE, 2017).

System: MV-4-11 cells
Assay: Gene expression microarray analysis (Affymetrix PrimeView) and GSEA
Type: cell-based, human
Parameters: RFU PODN (11730768_x_at) / Fold change /veh PODN (11730768_x_at) / RFU LINC00158 (11744669_a_at) / Fold change /veh LINC00158 (11744669_a_at) / RFU DUSP10 (11751237_a_at) / Fold change /veh DUSP10 (11751237_a_at) / RFU ID3 (11757404_x_at) / Fold change /veh ID3 (11757404_x_at) / RFU PLEKHG5 (11737974_s_at) / Fold change /veh PLEKHG5 (11737974_s_at) / RFU LRRC4B (11730491_at) / Fold change /veh LRRC4B (11730491_at) / RFU GIMAP4 (11747438_a_at) / Fold change /veh GIMAP4 (11747438_a_at) / RFU KRT8 (11758183_x_at) / Fold change /veh KRT8 (11758183_x_at) / RFU CNN1 (11734310_a_at) / Fold change /veh CNN1 (11734310_a_at) / RFU VPS37D (11726825_at) / Fold change /veh VPS37D (11726825_at) / RFU C10orf10 (11716522_x_at) / Fold change /veh C10orf10 (11716522_x_at) / RFU KIR2DL2 /// KIR2DL4 /// KIR2DL5A /// KIR2DL5B /// KIR2DS1 /// KIR2DS2 /// KIR2DS3 /// KIR2DS4 /// KIR3DL3 /// KIR3DL3 /// KIR3DS1 (11738374_at) / Fold change /veh KIR2DL2 /// KIR2DL4 /// KIR2DL5A /// KIR2DL5B /// KIR2DS1 /// KIR2DS2 /// KIR2DS3 /// KIR2DS4 /// KIR3DL3 /// KIR3DL3 /// KIR3DS1 (11738374_at) / RFU C1QL1 (11718748_at) / Fold change /veh C1QL1 (11718748_at) / RFU TMPRSS4 (11747572_a_at) / Fold change /veh TMPRSS4 (11747572_a_at) / RFU HAMP (11756126_x_at) / Fold change /veh HAMP (11756126_x_at) / RFU RNFT2 (11725882_a_at) / Fold change /veh RNFT2 (11725882_a_at) / RFU NR4A2 (11747474_a_at) / Fold change /veh NR4A2 (11747474_a_at) / RFU ABCC12 (11746883_a_at) / Fold change /veh ABCC12 (11746883_a_at) / RFU TMEM136 (11760407_x_at) / Fold change /veh TMEM136 (11760407_x_at) / RFU CLDN22 /// WWC2 (11732394_at) / Fold change /veh CLDN22 /// WWC2 (11732394_at) / RFU HLA-DPB1 (11760878_x_at) / Fold change /veh HLA-DPB1 (11760878_x_at) / RFU SPINT1 (11716480_a_at) / Fold change /veh SPINT1 (11716480_a_at) / RFU GAP43 (11754022_s_at) / Fold change /veh GAP43 (11754022_s_at) / RFU A4GNT (11735810_at) / Fold change /veh A4GNT (11735810_at) / RFU PRB3 (11715151_x_at) / Fold change /veh PRB3 (11715151_x_at) / RFU TUBB4B (11761932_at) / Fold change /veh TUBB4B (11761932_at) / RFU CAPN14 (11732068_a_at) / Fold change /veh CAPN14 (11732068_a_at) / RFU TMCC2 (11721928_a_at) / Fold change /veh TMCC2 (11721928_a_at) / RFU IRGQ (11745062_a_at) / Fold change /veh IRGQ (11745062_a_at) / RFU FAM174B (11720279_a_at) / Fold change /veh FAM174B (11720279_a_at) / RFU TMPRSS4 (11748680_a_at) / Fold change /veh TMPRSS4 (11748680_a_at) / RFU FAM212B (11763350_a_at) / Fold change /veh FAM212B (11763350_a_at) / RFU PLEKHG5 (11743358_a_at) / Fold change /veh PLEKHG5 (11743358_a_at) / RFU ZSCAN30 (11745921_a_at) / Fold change /veh ZSCAN30 (11745921_a_at) / RFU CMKLR1 (11741424_a_at) / Fold change /veh CMKLR1 (11741424_a_at) / RFU LOC101060620 /// MAPK8IP1 (11723275_at) / Fold change /veh LOC101060620 /// MAPK8IP1 (11723275_at) / RFU SPTSSB (11747773_x_at) / Fold change /veh SPTSSB (11747773_x_at) / RFU PRSS12 (11739890_at) / Fold change /veh PRSS12 (11739890_at) / RFU BIN1 (11741810_x_at) / Fold change /veh BIN1 (11741810_x_at) / RFU WNT11 (11732464_a_at) / Fold change /veh WNT11 (11732464_a_at) / RFU C10orf10 (11716521_a_at) / Fold change /veh C10orf10 (11716521_a_at) / RFU C5orf56 (11738089_at) / Fold change /veh C5orf56 (11738089_at) / RFU CYB561 (11721691_x_at) / Fold change /veh CYB561 (11721691_x_at) / RFU ANKRD19P (11752326_a_at) / Fold change /veh ANKRD19P (11752326_a_at) / RFU OR2T12 /// OR2T33 /// OR2T8 (11738714_s_at) / Fold change /veh OR2T12 /// OR2T33 /// OR2T8 (11738714_s_at) / RFU VCAN (11748164_a_at) / Fold change /veh VCAN (11748164_a_at) / RFU JSRP1 (11732532_at) / Fold change /veh JSRP1 (11732532_at) / RFU KRTAP10-11 (11738290_x_at) / Fold change /veh KRTAP10-11 (11738290_x_at) / RFU MYO3A (11730013_a_at) / Fold change /veh MYO3A (11730013_a_at) / RFU EBF3 (11725865_a_at) / Fold change /veh EBF3 (11725865_a_at) / RFU CAMK2N1 (11719241_x_at) / Fold change /veh CAMK2N1 (11719241_x_at) / RFU C5orf56 (11738088_a_at) / Fold change /veh C5orf56 (11738088_a_at) / RFU OLFML3 (11715873_a_at) / Fold change /veh OLFML3 (11715873_a_at) / RFU LOC100653217 /// NTM (11731650_a_at) / Fold change /veh LOC100653217 /// NTM (11731650_a_at) / RFU MAPK11 (11762145_a_at) / Fold change /veh MAPK11 (11762145_a_at) / RFU FIZ1 (11724087_x_at) / Fold change /veh FIZ1 (11724087_x_at) / RFU OASL (11726364_x_at) / Fold change /veh OASL (11726364_x_at) / RFU SOX15 (11748057_x_at) / Fold change /veh SOX15 (11748057_x_at) / RFU CD79A (11719716_a_at) / Fold change /veh CD79A (11719716_a_at) / RFU HIST1H1D (11736915_at) / Fold change /veh HIST1H1D (11736915_at) / RFU CASKIN2 (11723855_a_at) / Fold change /veh CASKIN2 (11723855_a_at) / RFU LOC730098 (11760151_x_at) / Fold change /veh LOC730098 (11760151_x_at) / RFU OR4N2 (11742367_at) / Fold change /veh OR4N2 (11742367_at) / RFU PRRT2 (11749266_a_at) / Fold change /veh PRRT2 (11749266_a_at) / RFU SNX32 (11753110_a_at) / Fold change /veh SNX32 (11753110_a_at) / RFU CDHR5 (11726645_a_at) / Fold change /veh CDHR5 (11726645_a_at) / RFU RCAN1 (11760418_a_at) / Fold change /veh RCAN1 (11760418_a_at) / RFU FAM167A (11723789_a_at) / Fold change /veh FAM167A (11723789_a_at) / RFU FAM26E (11764081_at) / Fold change /veh FAM26E (11764081_at) / RFU ISYNA1 (11749810_s_at) / Fold change /veh ISYNA1 (11749810_s_at) / RFU ACY1 (11761880_at) / Fold change /veh ACY1 (11761880_at) / RFU 11764098_at / Fold change /veh 11764098_at / RFU SAMD14 (11745864_x_at) / Fold change /veh SAMD14 (11745864_x_at) / RFU NPB (11741838_a_at) / Fold change /veh NPB (11741838_a_at) / RFU TMPRSS6 (11731388_a_at) / Fold change /veh TMPRSS6 (11731388_a_at) / RFU KRTAP10-2 (11738614_at) / Fold change /veh KRTAP10-2 (11738614_at) / RFU ARHGAP8 /// PRR5-ARHGAP8 (11727945_x_at) / Fold change /veh ARHGAP8 /// PRR5-ARHGAP8 (11727945_x_at) / RFU KRTAP5-7 /// NADSYN1 (11734609_at) / Fold change /veh KRTAP5-7 /// NADSYN1 (11734609_at) / RFU RASL12 (11751679_a_at) / Fold change /veh RASL12 (11751679_a_at) / RFU CDKN2B (11736163_a_at) / Fold change /veh CDKN2B (11736163_a_at) / RFU PRF1 (11729649_at) / Fold change /veh PRF1 (11729649_at) / RFU, ZNF638 /// ZNF638-IT1 / Fold change vs veh, ZNF638 /// ZNF638-IT1 / RFU, PANK3 / Fold change vs veh, PANK3 / RFU, SH3YL1 / Fold change vs veh, SH3YL1 / RFU, ZEB2 / Fold change vs veh, ZEB2 / RFU, NRIP1 / Fold change vs veh, NRIP1 / RFU, PTTG1IP / Fold change vs veh, PTTG1IP / RFU, CAPN2 / Fold change vs veh, CAPN2 / RFU, MED14 / Fold change vs veh, MED14 / RFU, SNORA58 / Fold change vs veh, SNORA58 / RFU, C1orf63 / Fold change vs veh, C1orf63 / RFU, LRRFIP1 / Fold change vs veh, LRRFIP1 / RFU, NDUFAF7 / Fold change vs veh, NDUFAF7 / RFU, SLC12A2 / Fold change vs veh, SLC12A2 / RFU, IBTK / Fold change vs veh, IBTK / RFU, ESF1 / Fold change vs veh, ESF1 / Fold change vs veh, TMEM50B / RFU, TAOK1 / Fold change vs veh, TAOK1 / RFU, ACBD3 / Fold change vs veh, ACBD3 / RFU, TMA16 / Fold change vs veh, TMA16 / RFU, RWDD3 / Fold change vs veh, RWDD3 / RFU, BCAT1 / Fold change vs veh, BCAT1 / RFU, EDEM3 / Fold change vs veh, EDEM3 / RFU, TMEM33 / Fold change vs veh, TMEM33 / RFU, WDR75 / Fold change vs veh, WDR75 / RFU, AHCTF1 / Fold change vs veh, AHCTF1 / RFU, TFRC / Fold change vs veh, TFRC / RFU, ZDHHC17 / Fold change vs veh, ZDHHC17 / RFU, NOM1 / Fold change vs veh, NOM1 / RFU, ARL8B / Fold change vs veh, ARL8B / RFU, ZBTB11 / Fold change vs veh, ZBTB11 / RFU, TAMM41 / Fold change vs veh, TAMM41 / RFU, KIAA1704 /// LOC100996395 / Fold change vs veh, KIAA1704 /// LOC100996395 / RFU, ING1 / Fold change vs veh, ING1 / RFU, TRMT61B / Fold change vs veh, TRMT61B / RFU, FUBP3 / Fold change vs veh, FUBP3 / RFU, TP53 / Fold change vs veh, TP53 / RFU, TNKS2 / Fold change vs veh, TNKS2 / RFU, ZFP14 / Fold change vs veh, ZFP14 / RFU, ACTR2 / Fold change vs veh, ACTR2 / RFU, PPP3R1 / Fold change vs veh, PPP3R1 / RFU, PIK3R1 / Fold change vs veh, PIK3R1 / RFU, HNRNPA1 / Fold change vs veh, HNRNPA1 / RFU, RNF170 / Fold change vs veh, RNF170 / RFU, ZNF28 / Fold change vs veh, ZNF28 / RFU, RNGTT / Fold change vs veh, RNGTT / RFU, OGT / Fold change vs veh, OGT / RFU, BRD1 / Fold change vs veh, BRD1 / RFU, MARS / Fold change vs veh, MARS / RFU, ZNF655 / Fold change vs veh, ZNF655 / RFU, FAHD1 / Fold change vs veh, FAHD1 / RFU, BDP1 / Fold change vs veh, BDP1 / RFU, LRRCC1 / Fold change vs veh, LRRCC1 / RFU, ARID1A / Fold change vs veh, ARID1A / RFU, ZNF146 / Fold change vs veh, ZNF146 / RFU, ZNF330 / Fold change vs veh, ZNF330 / RFU, GPN3 / Fold change vs veh, GPN3 / RFU, C9orf123 / Fold change vs veh, C9orf123 / RFU, N4BP2L2 / Fold change vs veh, N4BP2L2 / RFU, ARFIP1 / Fold change vs veh, ARFIP1 / RFU, FAM179B / Fold change vs veh, FAM179B / RFU, BCL10 / Fold change vs veh, BCL10 / RFU, UHRF1BP1L / Fold change vs veh, UHRF1BP1L / RFU, BET1 / Fold change vs veh, BET1 / RFU, CNOT2 / Fold change vs veh, CNOT2 / RFU, ZNF268 / Fold change vs veh, ZNF268 / Fold change vs veh, ZNF507 / RFU, DGCR2 / Fold change vs veh, DGCR2 / RFU, WDSUB1 / Fold change vs veh, WDSUB1 / Fold change vs veh, HSP90B1 /// MIR3652 / RFU, ADSS / Fold change vs veh, ADSS / RFU, GK / Fold change vs veh, GK / RFU, ZNF148 / Fold change vs veh, ZNF148 / RFU, TAF9 / Fold change vs veh, TAF9 / RFU, SLC1A5 / Fold change vs veh, SLC1A5 / RFU, SLMO2 / Fold change vs veh, SLMO2 / RFU, ABCC4 / Fold change vs veh, ABCC4 / RFU, LOC101060439 /// RAP1B / Fold change vs veh, LOC101060439 /// RAP1B / RFU, RFX7 / Fold change vs veh, RFX7 / RFU, GTPBP10 / Fold change vs veh, GTPBP10 / RFU, CNEP1R1 / Fold change vs veh, CNEP1R1 / RFU, BIVM-ERCC5 /// ERCC5 / Fold change vs veh, BIVM-ERCC5 /// ERCC5 / RFU, ILF3 / Fold change vs veh, ILF3 / RFU 11762660_at / Fold change /veh 11762660_at / RFU VCAN (11757783_s_at) / Fold change /veh VCAN (11757783_s_at) / RFU DDX43 (11728927_at) / Fold change /veh DDX43 (11728927_at) / RFU KRT8 (11758188_x_at) / Fold change /veh KRT8 (11758188_x_at) / RFU NKD1 (11759106_at) / Fold change /veh NKD1 (11759106_at) / RFU SRD5A1 (11742802_a_at) / Fold change /veh SRD5A1 (11742802_a_at) / RFU TPSAB1 /// TPSB2 (11721975_s_at) / Fold change /veh TPSAB1 /// TPSB2 (11721975_s_at) / RFU GSTM3 (11746129_a_at) / Fold change /veh GSTM3 (11746129_a_at) / RFU IL23R (11737362_x_at) / Fold change /veh IL23R (11737362_x_at) / RFU TMEM51 (11727254_a_at) / Fold change /veh TMEM51 (11727254_a_at) / RFU PIWIL2 (11732686_x_at) / Fold change /veh PIWIL2 (11732686_x_at) / RFU ORM1 (11744905_x_at) / Fold change /veh ORM1 (11744905_x_at) / RFU CCDC152 (11743942_at) / Fold change /veh CCDC152 (11743942_at) / RFU ECM1 (11717891_a_at) / Fold change /veh ECM1 (11717891_a_at) / RFU IL23R (11748794_a_at) / Fold change /veh IL23R (11748794_a_at) / RFU TNFAIP8L3 (11732012_x_at) / Fold change /veh TNFAIP8L3 (11732012_x_at) / RFU MBOAT4 (11741988_at) / Fold change /veh MBOAT4 (11741988_at) / RFU 11764193_at / Fold change /veh 11764193_at / RFU TMEM53 (11763286_at) / Fold change /veh TMEM53 (11763286_at) / RFU MAGEB2 (11727129_at) / Fold change /veh MAGEB2 (11727129_at) / RFU TMEM200A (11744735_a_at) / Fold change /veh TMEM200A (11744735_a_at) / RFU CCDC152 (11751479_a_at) / Fold change /veh CCDC152 (11751479_a_at) / RFU FAM211A (11726209_a_at) / Fold change /veh FAM211A (11726209_a_at) / RFU RGS16 (11746705_a_at) / Fold change /veh RGS16 (11746705_a_at) / RFU VCAN (11755009_s_at) / Fold change /veh VCAN (11755009_s_at) / RFU RHOB (11743442_s_at) / Fold change /veh RHOB (11743442_s_at) / RFU RGS16 (11720943_a_at) / Fold change /veh RGS16 (11720943_a_at) / RFU RGS16 (11720944_at) / Fold change /veh RGS16 (11720944_at) / RFU, VPS4B / Fold change vs veh, VPS4B / RFU, CREB1 / Fold change vs veh, CREB1 / RFU, DNAJC13 / Fold change vs veh, DNAJC13 / RFU, GNAQ / Fold change vs veh, GNAQ / RFU, CDK5R1 / Fold change vs veh, CDK5R1 / RFU, ZRANB3 / Fold change vs veh, ZRANB3 / RFU, CUL4A / Fold change vs veh, CUL4A / RFU, CCNY / Fold change vs veh, CCNY / RFU, UFL1 / Fold change vs veh, UFL1 / RFU, COG3 / Fold change vs veh, COG3 / RFU, DIAPH2 / Fold change vs veh, DIAPH2 / RFU, SKA2 / Fold change vs veh, SKA2 / RFU, AFF3 / Fold change vs veh, AFF3 / RFU, LMF1 / Fold change vs veh, LMF1 / RFU, IPO11 / Fold change vs veh, IPO11 / RFU, DFFB / Fold change vs veh, DFFB / RFU, FOXP1 / Fold change vs veh, FOXP1 / RFU, CARD8 / Fold change vs veh, CARD8 / RFU, STRN3 / Fold change vs veh, STRN3 / RFU, ADK / Fold change vs veh, ADK / RFU, RASSF2 / Fold change vs veh, RASSF2 / RFU, WIPF1 / Fold change vs veh, WIPF1 / RFU, LARP1B / Fold change vs veh, LARP1B / RFU, RASA1 / Fold change vs veh, RASA1 / RFU, RB1 / Fold change vs veh, RB1 / RFU, PPFIA1 / Fold change vs veh, PPFIA1 / RFU, MAT2A / Fold change vs veh, MAT2A / RFU, CCT5 / Fold change vs veh, CCT5 / RFU, WDR92 / Fold change vs veh, WDR92 / RFU, CUX1 / Fold change vs veh, CUX1 / RFU, TTC7A / Fold change vs veh, TTC7A / RFU, TMEM135 / Fold change vs veh, TMEM135 / RFU, DEPTOR / Fold change vs veh, DEPTOR / RFU, CPM / Fold change vs veh, CPM / RFU, DNAJB6 / Fold change vs veh, DNAJB6 / RFU, CACNA2D3 / Fold change vs veh, CACNA2D3 / RFU, DTX4 / Fold change vs veh, DTX4 / RFU, TFCP2 / Fold change vs veh, TFCP2 / RFU, GMCL1 /// GMCL1P1 / Fold change vs veh, GMCL1 /// GMCL1P1 / RFU, AEBP2 / Fold change vs veh, AEBP2 / RFU, SNHG1 /// SNORD22 /// SNORD25 /// SNORD26 /// SNORD27 /// SNORD28 /// SNORD29 /// SNORD31 / Fold change vs veh, SNHG1 /// SNORD22 /// SNORD25 /// SNORD26 /// SNORD27 /// SNORD28 /// SNORD29 /// SNORD31 / Fold change (Aza/veh), C12orf56 (ProbeSet 11735607_a_at) / Fold change (ACY-1035/veh), C12orf56 (ProbeSet 11735607_a_at) / Fold change (Aza/veh), FGFR1OP (ProbeSet 11751329_s_at) / Fold change (ACY-1035/veh), FGFR1OP (ProbeSet 11751329_s_at) / Fold change (Aza/veh), VPS36 (ProbeSet 11739960_a_at) / Fold change (ACY-1035/veh), VPS36 (ProbeSet 11739960_a_at) / RFU SYPL1 (11715823_x_at) / Fold change /veh SYPL1 (11715823_x_at) / RFU IGFBP7 (11715501_s_at) / Fold change /veh IGFBP7 (11715501_s_at) / RFU REEP3 (11722064_at) / Fold change /veh REEP3 (11722064_at) / RFU IGLL1 (11728026_x_at) / Fold change /veh IGLL1 (11728026_x_at): dose or concentration left out as unconfirmed
Settings: ProbeSet 11723930_at; LIST D

SMILES: Nc1ccc(-c2cccs2)cc1NC(=O)c1ccc2c(c1)cc(C1CC1)n2CCN1CCOCC1 [ACY-1035]
- RFU, CCT5: 132.28 RFU
